Assays:
MELK = target: T1, MELK (Homo sapiens, UniProt Q14680); test: Panel of 270 human kinases (Millipore); type: biochemical
T1 construct: purchased Millipore Corporation
Procedure: (§1) The inhibitory activity of selected compounds of the invention (A335, A405, A410, A261, A300 and A363) was evaluated against a panel of 270 different human kinase enzymes by Millipore Corporation. The % Inhibition was determined by the formula: % Inhibition=100×(1−(experimental value−background value)/(high activity control−background value)).

Aurora-B = target: T2, Aurora-B (Homo sapiens, UniProt Q96GD4); test: Panel of 270 human kinases (Millipore); type: biochemical
T2 construct: purchased Millipore Corporation
Procedure: as §1

Met(Y1248C) = target: T3, Met(Y1248C) (Homo sapiens, UniProt P08581, Y1230C); test: Panel of 270 human kinases (Millipore); type: biochemical
T3 construct: purchased Millipore Corporation
Procedure: as §1

cKit (V560G) = target: T4, cKit (V560G) (Homo sapiens, UniProt P10721, V560G); test: Panel of 270 human kinases (Millipore); type: biochemical
T4 construct: purchased Millipore Corporation
Procedure: as §1

JNK3 = target: T5, JNK3 (Homo sapiens, UniProt P53779); test: Panel of 270 human kinases (Millipore); type: biochemical
T5 construct: purchased Millipore Corporation
Procedure: as §1

MAPK2 = target: T6, MAPK2 (Homo sapiens, UniProt P28482); test: Panel of 270 human kinases (Millipore); type: biochemical
T6 construct: purchased Millipore Corporation
Procedure: as §1

MUSK = target: T7, MUSK (Homo sapiens, UniProt O15146); test: Panel of 270 human kinases (Millipore); type: biochemical
T7 construct: purchased Millipore Corporation
T7 sequence (O15146 24-869): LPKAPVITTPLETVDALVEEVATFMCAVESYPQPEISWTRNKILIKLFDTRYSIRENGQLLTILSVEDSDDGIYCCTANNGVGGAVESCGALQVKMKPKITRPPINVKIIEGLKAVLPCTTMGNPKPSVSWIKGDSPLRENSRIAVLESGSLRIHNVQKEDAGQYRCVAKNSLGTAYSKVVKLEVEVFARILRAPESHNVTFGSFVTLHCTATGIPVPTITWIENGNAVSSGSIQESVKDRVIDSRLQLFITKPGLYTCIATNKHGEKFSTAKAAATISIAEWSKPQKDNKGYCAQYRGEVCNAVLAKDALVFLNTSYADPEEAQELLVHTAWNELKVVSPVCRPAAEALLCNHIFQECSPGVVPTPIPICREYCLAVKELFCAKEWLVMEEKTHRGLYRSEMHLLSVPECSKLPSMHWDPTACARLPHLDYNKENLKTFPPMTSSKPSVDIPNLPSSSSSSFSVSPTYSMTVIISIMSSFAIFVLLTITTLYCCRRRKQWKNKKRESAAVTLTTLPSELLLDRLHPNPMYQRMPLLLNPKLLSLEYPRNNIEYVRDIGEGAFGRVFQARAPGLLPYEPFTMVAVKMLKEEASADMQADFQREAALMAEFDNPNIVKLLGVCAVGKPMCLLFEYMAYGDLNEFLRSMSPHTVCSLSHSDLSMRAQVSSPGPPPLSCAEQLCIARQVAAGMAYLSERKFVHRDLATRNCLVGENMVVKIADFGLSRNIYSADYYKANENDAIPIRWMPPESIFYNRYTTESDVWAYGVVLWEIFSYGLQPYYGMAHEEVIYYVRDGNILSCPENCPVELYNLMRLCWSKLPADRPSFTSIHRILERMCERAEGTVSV
Procedure: as §1

ALK = target: T8, ALK (Homo sapiens, UniProt Q9UM73); test: Panel of 270 human kinases (Millipore); type: biochemical
T8 construct: purchased Millipore Corporation
Procedure: as §1

Breast cancer cells = test: Cancer cell line growth inhibition (SRB assay); type: cell-based; details: Homo sapiens; MDA-MB-468; read-out: Cancer Cell Line GI50 Range MDA-MB-468
TICs (Colon 12) = test: Colon tumor-initiating cell growth inhibition (Alamar Blue); type: cell-based; details: 216 h; Colon 12 TICs, 9 days; read-out: Tumor Initiating Cell GI50 Range Colon 12
human TTK = target: T9, human TTK (Homo sapiens, UniProt P33981); test: TTK inhibition assay (indirect ELISA); type: biochemical; details: read-out: TTK IC50 Range
T9 construct: amino terminal GST fusion of full length human TTK; purchased Invitrogen
T9 sequence (P33981 1-857): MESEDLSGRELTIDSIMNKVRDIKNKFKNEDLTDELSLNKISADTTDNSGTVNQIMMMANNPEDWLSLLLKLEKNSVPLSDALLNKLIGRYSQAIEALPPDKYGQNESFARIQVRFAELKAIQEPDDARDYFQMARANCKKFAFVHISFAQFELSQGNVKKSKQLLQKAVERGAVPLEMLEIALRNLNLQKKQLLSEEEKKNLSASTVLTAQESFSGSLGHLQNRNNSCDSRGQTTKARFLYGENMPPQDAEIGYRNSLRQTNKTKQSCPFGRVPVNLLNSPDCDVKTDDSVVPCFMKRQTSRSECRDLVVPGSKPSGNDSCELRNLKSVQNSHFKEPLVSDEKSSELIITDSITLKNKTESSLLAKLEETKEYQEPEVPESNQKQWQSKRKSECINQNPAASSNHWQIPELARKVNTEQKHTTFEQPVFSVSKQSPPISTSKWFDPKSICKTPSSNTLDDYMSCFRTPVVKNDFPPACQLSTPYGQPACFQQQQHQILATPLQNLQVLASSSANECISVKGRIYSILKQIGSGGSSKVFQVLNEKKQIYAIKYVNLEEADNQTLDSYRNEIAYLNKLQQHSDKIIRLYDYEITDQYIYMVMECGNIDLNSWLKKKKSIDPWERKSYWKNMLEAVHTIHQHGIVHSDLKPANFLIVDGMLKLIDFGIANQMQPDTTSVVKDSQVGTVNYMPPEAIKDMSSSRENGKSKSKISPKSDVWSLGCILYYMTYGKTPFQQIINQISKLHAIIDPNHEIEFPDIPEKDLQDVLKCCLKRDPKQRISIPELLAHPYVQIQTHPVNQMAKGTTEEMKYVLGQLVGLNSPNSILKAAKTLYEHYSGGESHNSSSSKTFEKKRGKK

[1] = system: ovarian cancer cells (PA-1); test: Cancer cell line growth inhibition (SRB assay); type: cell-based; details: Homo sapiens, PA-1; read-out: Cancer Cell Line GI50 Range PA-1
[2] = system: colon cancer cells (HCT116); test: Cancer cell line growth inhibition (SRB assay); type: cell-based; details: Homo sapiens, HCT-116; read-out: Cancer Cell Line GI50 Range HCT116
TICs (Ovarian 2393A) = test: Ovarian tumor-initiating cell growth inhibition (Alamar Blue); type: cell-based; details: 144 h; Ovarian 2393A TICs, 6 days; read-out: Tumor Initiating Cell GI50 Range Ovarain 2393A

T4 sequence (P10721 26-976 V560G): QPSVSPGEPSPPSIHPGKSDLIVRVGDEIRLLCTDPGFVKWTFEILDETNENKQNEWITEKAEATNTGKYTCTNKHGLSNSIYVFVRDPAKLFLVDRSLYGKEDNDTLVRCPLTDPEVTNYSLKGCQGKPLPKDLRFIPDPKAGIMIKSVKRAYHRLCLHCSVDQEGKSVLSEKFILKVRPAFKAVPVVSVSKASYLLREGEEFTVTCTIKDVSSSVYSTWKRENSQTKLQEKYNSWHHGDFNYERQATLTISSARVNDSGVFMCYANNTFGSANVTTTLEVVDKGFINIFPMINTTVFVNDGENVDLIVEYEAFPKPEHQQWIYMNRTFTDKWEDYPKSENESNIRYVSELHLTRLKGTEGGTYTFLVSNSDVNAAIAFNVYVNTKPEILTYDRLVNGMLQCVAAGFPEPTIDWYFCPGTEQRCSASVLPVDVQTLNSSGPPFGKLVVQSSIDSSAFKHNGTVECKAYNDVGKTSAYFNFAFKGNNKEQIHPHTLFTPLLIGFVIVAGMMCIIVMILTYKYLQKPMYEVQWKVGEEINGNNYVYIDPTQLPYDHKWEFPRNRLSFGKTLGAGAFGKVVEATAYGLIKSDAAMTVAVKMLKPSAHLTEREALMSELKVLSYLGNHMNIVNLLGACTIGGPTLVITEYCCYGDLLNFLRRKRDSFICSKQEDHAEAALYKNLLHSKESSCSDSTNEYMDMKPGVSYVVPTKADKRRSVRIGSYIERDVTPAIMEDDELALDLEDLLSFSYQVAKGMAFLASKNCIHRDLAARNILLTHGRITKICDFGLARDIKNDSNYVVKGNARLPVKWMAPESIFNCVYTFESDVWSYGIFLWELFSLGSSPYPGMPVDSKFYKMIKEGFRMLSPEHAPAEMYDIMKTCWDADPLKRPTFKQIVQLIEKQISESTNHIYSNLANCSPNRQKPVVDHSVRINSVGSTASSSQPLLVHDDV
T6 sequence (P28482 whole entry): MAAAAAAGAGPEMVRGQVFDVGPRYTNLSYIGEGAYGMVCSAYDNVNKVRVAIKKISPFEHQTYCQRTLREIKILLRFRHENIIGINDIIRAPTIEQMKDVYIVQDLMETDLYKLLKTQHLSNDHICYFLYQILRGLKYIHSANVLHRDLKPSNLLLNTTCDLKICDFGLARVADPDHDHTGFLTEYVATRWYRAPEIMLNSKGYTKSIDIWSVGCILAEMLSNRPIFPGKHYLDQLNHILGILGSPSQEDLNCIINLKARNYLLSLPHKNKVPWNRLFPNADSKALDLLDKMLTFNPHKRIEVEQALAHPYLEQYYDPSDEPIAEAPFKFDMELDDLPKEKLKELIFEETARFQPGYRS
T5 sequence (P53779 whole entry): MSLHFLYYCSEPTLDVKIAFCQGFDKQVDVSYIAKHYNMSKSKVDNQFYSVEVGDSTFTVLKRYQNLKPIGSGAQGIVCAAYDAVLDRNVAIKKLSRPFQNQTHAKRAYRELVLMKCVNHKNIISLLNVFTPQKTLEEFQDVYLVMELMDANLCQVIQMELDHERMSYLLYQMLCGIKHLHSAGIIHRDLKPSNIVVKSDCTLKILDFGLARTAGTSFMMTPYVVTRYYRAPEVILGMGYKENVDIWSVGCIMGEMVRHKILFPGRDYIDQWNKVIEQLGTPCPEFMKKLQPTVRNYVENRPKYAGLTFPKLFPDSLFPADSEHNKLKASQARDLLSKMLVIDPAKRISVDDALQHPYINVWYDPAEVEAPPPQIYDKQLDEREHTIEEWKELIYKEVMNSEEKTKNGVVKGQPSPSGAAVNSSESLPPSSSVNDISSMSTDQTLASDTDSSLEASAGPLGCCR
T3 sequence (P08581 25-1408 isoform P08581-2 Y1248C limits assumed): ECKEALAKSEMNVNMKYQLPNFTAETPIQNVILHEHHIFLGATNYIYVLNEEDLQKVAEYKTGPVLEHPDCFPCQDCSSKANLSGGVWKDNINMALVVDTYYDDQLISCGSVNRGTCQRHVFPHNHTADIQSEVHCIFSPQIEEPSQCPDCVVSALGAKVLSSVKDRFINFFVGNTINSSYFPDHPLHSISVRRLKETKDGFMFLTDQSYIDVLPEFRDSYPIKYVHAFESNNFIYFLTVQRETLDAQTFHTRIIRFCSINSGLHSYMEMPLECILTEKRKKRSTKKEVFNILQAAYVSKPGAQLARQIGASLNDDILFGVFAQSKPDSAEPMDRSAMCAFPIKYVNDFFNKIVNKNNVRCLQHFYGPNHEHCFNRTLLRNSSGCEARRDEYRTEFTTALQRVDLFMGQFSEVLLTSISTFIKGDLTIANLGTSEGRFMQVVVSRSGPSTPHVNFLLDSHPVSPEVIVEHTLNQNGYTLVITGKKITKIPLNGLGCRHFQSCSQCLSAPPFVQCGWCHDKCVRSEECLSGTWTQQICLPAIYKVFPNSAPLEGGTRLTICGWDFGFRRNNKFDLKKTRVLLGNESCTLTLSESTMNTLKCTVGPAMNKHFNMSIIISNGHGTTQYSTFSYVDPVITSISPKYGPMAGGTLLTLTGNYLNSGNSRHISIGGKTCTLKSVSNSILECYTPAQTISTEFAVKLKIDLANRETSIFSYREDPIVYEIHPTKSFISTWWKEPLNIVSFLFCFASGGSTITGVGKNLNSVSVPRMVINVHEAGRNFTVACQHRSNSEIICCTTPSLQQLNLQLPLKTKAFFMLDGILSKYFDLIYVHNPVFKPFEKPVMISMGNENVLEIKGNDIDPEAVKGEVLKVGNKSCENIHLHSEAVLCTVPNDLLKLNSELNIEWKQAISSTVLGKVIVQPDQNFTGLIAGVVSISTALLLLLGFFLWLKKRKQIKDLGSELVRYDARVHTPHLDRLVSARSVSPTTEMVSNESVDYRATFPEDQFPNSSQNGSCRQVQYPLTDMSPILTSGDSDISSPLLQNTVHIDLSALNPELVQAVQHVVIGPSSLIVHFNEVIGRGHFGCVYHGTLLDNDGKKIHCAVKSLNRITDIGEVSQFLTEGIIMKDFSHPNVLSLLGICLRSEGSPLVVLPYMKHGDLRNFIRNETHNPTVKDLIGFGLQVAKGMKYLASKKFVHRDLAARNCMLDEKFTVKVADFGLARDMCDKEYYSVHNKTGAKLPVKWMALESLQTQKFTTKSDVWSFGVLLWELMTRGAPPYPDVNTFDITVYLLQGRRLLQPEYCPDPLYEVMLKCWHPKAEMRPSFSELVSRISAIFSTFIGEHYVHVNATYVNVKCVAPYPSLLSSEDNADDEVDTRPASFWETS
T8 sequence (Q9UM73 19-1620): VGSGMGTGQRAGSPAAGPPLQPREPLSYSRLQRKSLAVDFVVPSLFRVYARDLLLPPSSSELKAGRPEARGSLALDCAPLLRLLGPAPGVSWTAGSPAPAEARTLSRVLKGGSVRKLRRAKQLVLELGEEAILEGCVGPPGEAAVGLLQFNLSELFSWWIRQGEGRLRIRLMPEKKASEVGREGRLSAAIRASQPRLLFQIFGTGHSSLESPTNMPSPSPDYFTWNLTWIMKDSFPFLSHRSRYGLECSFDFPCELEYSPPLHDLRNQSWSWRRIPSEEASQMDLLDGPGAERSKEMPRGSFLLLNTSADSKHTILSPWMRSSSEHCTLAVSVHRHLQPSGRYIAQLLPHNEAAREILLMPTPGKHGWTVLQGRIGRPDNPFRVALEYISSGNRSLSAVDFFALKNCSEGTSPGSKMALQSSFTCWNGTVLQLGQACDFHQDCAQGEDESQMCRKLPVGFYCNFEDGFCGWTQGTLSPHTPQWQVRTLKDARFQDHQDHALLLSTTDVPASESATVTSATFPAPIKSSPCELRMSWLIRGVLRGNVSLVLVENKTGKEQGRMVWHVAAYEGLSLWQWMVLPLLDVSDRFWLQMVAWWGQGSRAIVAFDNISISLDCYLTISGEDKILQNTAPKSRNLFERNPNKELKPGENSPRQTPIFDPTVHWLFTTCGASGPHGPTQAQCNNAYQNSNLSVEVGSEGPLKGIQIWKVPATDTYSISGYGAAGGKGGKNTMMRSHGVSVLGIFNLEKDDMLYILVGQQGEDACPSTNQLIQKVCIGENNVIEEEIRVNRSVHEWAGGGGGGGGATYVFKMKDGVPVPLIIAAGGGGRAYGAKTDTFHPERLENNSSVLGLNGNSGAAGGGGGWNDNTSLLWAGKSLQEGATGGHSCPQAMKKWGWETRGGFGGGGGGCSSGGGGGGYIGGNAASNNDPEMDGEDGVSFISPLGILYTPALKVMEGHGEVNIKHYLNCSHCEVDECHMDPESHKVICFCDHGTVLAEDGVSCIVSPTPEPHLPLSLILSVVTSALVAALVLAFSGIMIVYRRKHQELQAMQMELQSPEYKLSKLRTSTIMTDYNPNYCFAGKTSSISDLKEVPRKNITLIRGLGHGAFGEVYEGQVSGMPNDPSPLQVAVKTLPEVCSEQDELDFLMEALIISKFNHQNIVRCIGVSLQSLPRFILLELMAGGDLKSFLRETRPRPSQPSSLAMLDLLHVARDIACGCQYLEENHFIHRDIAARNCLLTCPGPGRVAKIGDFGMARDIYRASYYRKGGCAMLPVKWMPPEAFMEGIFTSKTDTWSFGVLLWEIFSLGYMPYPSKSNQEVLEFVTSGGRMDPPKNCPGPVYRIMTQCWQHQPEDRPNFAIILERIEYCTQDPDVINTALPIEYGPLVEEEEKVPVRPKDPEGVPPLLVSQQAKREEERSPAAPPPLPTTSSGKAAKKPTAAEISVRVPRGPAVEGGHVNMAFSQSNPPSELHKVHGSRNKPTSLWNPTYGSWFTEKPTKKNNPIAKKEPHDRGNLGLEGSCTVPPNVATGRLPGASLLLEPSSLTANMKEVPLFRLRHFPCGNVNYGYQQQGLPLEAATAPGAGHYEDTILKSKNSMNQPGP
T2 sequence (Q96GD4 whole entry): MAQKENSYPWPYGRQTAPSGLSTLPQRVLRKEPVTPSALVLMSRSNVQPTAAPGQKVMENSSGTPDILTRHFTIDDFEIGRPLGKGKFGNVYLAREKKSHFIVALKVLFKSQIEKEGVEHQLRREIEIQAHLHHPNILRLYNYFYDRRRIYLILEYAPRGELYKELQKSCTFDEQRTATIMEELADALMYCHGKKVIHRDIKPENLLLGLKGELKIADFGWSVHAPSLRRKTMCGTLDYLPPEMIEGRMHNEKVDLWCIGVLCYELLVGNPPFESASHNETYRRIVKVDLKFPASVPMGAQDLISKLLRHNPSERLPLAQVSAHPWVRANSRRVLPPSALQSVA

Row | inhibition at 1 µM (MELK) | inhibition at 1 µM (Aurora-B) | inhibition at 1 µM (Met(Y1248C)) | inhibition at 1 µM (cKit (V560G)) | inhibition at 1 µM (JNK3) | inhibition at 1 µM (MAPK2) | inhibition at 1 µM (MUSK) | inhibition at 1 µM (ALK) | GI50 (Breast cancer cells) | GI50 (TICs (Colon 12)) | IC50 (human TTK) | GI50 [1] | GI50 [2] | GI50 (TICs (Ovarian 2393A)) | Compound
1 | 93% | 49% | 8% | 90% | 59% | 8% | 86% | 86% | < 0.1 µM | 0.1 to 0.5 µM | < 0.1 µM | < 0.1 µM | < 0.1 µM | < 0.1 µM | CC1=CC2(CCN(C)CC2)Oc2ccc(-c3n[nH]c4ccc(C(=O)N[C@H](c5ccccn5)C5CCCC5)cc34)cc21 [Example A261, (S)-N-(cyclopentyl(pyridin-2-yl)methyl)-3-(1′,4-dimethylspiro[chromene-2,4′-piperidin]-6-yl)-1H-indazole-5-carboxamide]
2 | 92% | 94% | 44% | 65% | 81% | 11% | 94% | 2% | < 0.1 µM | < 0.1 µM | < 0.1 µM | < 0.1 µM | < 0.1 µM | < 0.1 µM | CC(C)[C@H](NC(=O)c1ccc2[nH]nc(-c3ccc(N4CCN(C5COC5)CC4)cc3)c2c1)c1ccccc1Cl [Example A405, (S)-N-(1-(2-chlorophenyl)-2-methylpropyl)-3-(4-(4-(oxetan-3-yl)piperazin-1-yl)phenyl)-1H-indazole-5-carboxamide]
3 | 95% | 92% | 88% | 86% | 81% | -8% | 96% | -3% |  | < 0.1 µM | < 0.1 µM | < 0.1 µM | < 0.1 µM | < 0.1 µM | O=C(N[C@H](c1ccccn1)C1CCCC1)c1ccc2[nH]nc(-c3ccc(N4CCN(C5COC5)CC4)cc3)c2c1 [Example A410, (S)-N-(cyclopentyl(pyridin-2-yl)methyl)-3-(4-(4-(oxetan-3-yl)piperazin-1-yl)phenyl)-1H-indazole-5-carboxamide]
